Test: Gelling ability of basic amino acid derivatives (test tube tilting, visual appearance)
Type: physicochemical
Set-up: key to gel appearance: GT: transparent gel; GTL: translucent gel; GO: opaque gel
Details: heated to 100° C., stood at 25° C. for 2 hr
Experimental: The gelling ability of various basic amino acid derivatives prepared in Production Examples 1-4, 7, 9 and 10 was confirmed. Test tube equipped with a cover was filled with water, saline, phosphate buffered saline (hereinafter indicated as PBS), and aqueous NaCl solution or aqueous KCl solution, and a basic amino acid derivative was added at various concentrations. The mixture was heated to 100° C. to achieve homogeneous dissolution, and stood at 25° C. for 2 hr. After allowing to cool, the test tube was tilted, and the absence of fluidity was judged as gellation, and the appearance was visually observed.
Abbreviations mean the following. • GT: transparent gel • GTL: translucent gel • GO: opaque gel

Row | SMILES | gel appearance (0.1M aqueous KCl solution) | minimum gelling concentration (0.1M aqueous KCl solution) | gel appearance (0.1M aqueous NaCl solution) | minimum gelling concentration (0.1M aqueous NaCl solution) | gel appearance (1.0M aqueous KCl solution) | minimum gelling concentration (1.0M aqueous KCl solution) | gel appearance (PBS) | minimum gelling concentration (PBS) | gel appearance (saline) | minimum gelling concentration (saline) | gel appearance (water) | minimum gelling concentration (water) | gel appearance (1.0M aqueous NaCl solution) | minimum gelling concentration (1.0M aqueous NaCl solution)
1 | CCCCCCCCCCCC(=O)NCCCC[C@H](NC(=O)CC(CCCCCCCCCC)C(=O)[O-])C(=O)O.[Na+] (stereo partly drawn) [Production Example 3, N^ε-lauroyl-N^α-(3-carboxytridecanoyl)-L-lysine monosodium salt] | GTL | 20 g/L | GTL | 20 g/L | GO | 20 g/L | GO | 60 g/L | GTL | 50 g/L | GTL | 50 g/L |  | 
2 | CCCCCCCCCCCC(=O)NCCCC[C@H](NC(=O)CC(CCCCCCCCCC)C(=O)[O-])C(=O)OCC.[Na+] (stereo partly drawn) [Production Example 1, N^ε-lauroyl-N^α-(3-carboxytridecanoyl)-L-lysine ethyl ester sodium salt] | GTL | 15 g/L | GTL | 10 g/L |  |  |  |  | GTL | 20 g/L | GTL | 25 g/L |  | 
3 | CCCCCCCCCCCC(=O)NCCCC[C@H](NC(=O)CCCCCCC(=O)[O-])C(=O)O.[Na+] [Production Example 7, N^ε-lauroyl-N^α-(7-carboxyheptanoyl)-L-lysine monosodium salt] | GT | 30 g/L | GTL | 30 g/L | GT | 4 g/L | GT | 30 g/L | GT | 30 g/L |  |  | GT | 4 g/L
4 | CCCCCCCCCCCC(=O)NCCCC[C@H](NC(=O)CC(CCCCCCCCCC)C(=O)[O-])C(=O)O.[K+] (stereo partly drawn) [Production Example 4, N^ε-lauroyl-N^α-(3-carboxytridecanoyl)-L-lysine monopotassium salt] | GTL | 40 g/L | GTL | 20 g/L | GO | 20 g/L | GO | 60 g/L | GTL | 50 g/L | GTL | 60 g/L |  | 
5 | CCCCCCCCCCCC(=O)NCCCC[C@H](NC(=O)CCCCCCCCC(=O)[O-])C(=O)O.[Na+] [Production Example 9, N^ε-lauroyl-N^α-(9-carboxynonanoyl)-L-lysine monosodium salt] | GT | 4 g/L | GT | 4 g/L | GT | 4 g/L | GT | 4 g/L | GT | 4 g/L | GTL | 30 g/L | GT | 4 g/L
6 | CCCCCCCCCCCC(=O)NCCCC[C@H](NC(=O)CCCCCCCCC(=O)[O-])C(=O)O.[K+] [Production Example 10, N^ε-lauroyl-N^α-(9-carboxynonanoyl)-L-lysine monopotassium salt] | GT | 4 g/L | GT | 10 g/L | GT | 4 g/L | GT | 4 g/L | GT | 4 g/L | GTL | 30 g/L | GT | 4 g/L
7 | CCCCCCCCCCCC(=O)NCCCC[C@H](NC(=O)CC(CCCCCCCCCC)C(=O)[O-])C(=O)OCC.[K+] (stereo partly drawn) [Production Example 2, N^ε-lauroyl-N^α-(3-carboxytridecanoyl)-L-lysine ethyl ester potassium salt] | GTL | 10 g/L | GTL | 10 g/L |  |  |  |  | GTL | 20 g/L | GTL | 20 g/L |  | 
